The values that follow come from article PMC8179049 (Chemical Science, 2020).

The structures appear in SMILES notation. Where “and” joins values, the source holds several entries; their conditions need not be identical. Equal values may be shown once. Read-outs that look alike come from different tables or passages of the source.

Assay [1] deals with T1, human AspH (His6-AspH315-758) (Homo sapiens, UniProt Q12797).
T1 construct: N-Terminally His6-tagged human AspH315-758 (His6-AspH315-758) was produced in Escherichia coli BL21 (DE3); made in house; host or cells: Escherichia coli BL21 (DE3), pET-28a(+) vector
T1 sequence (Q12797 315-758): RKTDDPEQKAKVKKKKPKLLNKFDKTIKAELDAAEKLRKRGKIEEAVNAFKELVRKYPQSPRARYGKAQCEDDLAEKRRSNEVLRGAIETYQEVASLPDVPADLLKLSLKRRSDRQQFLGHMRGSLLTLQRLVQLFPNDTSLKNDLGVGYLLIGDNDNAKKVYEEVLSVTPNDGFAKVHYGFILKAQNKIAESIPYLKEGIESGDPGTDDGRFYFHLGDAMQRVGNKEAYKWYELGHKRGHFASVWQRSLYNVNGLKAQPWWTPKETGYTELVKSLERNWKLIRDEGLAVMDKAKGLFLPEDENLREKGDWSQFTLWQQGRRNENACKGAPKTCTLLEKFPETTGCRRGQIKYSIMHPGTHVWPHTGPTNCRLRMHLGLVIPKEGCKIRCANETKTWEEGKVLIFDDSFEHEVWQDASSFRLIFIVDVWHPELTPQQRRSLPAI
Kind of assay: NMR monitoring of AspH-catalyzed oxidative decarboxylation, with final SPE-MS analysis. Format: biochemical. As to the method: 2-methylsuccinate and terephthalate, respectively (continues on the following two pages). The AspH- […]
700 NMR machine equipped with a 5mm 1H(13C/15N) inverse cryoprobe. Assay conditions: 10 μM His6-AspH315- […]
iron(II) sulfate hexahydrate (FAS, (NH4)2Fe(SO4)2·6H2O) in 50 mM aqueous Tris-d11 containing 10 %v/v D2O (pH […]
product of the AspH-catalyzed reaction, was determined using SPE-MS (Supporting Information, Section 9) after […]
of the 1H NMR spectrum of commercial succinate in 50 mM aqueous Tris-d11 containing 10 %v/v D2O (pH 7.5, 25° […]
(1 picture or pasted object on this page, not shown here) […]
using a Bruker AVIII 700 NMR machine equipped with a 5mm 1H(13C/15N) inverse cryoprobe. Assay conditions: […]
ammonium iron(II) sulfate hexahydrate (FAS, (NH 4)2Fe(SO4)2·6H2O) in 50 mM aqueous Tris -d11 containing […]
which is the product of the AspH-catalyzed reaction, was determined using SPE-MS (Supporting Information, Section 9) after completion of the NMR experiments. […]
spectrum of synthetic 34 in 50 mM aqueous Tris-d11 containing 10 %v/v D2O (pH 7.5, 25° C); (b) Close-up (3.0-0.9 ppm) of the 1H NMR spectrum of commercial 2,2-dimethylsuccinate (52) in 50 mM aqueous Tris-d11

Assay [2] concerns the target T2, human AspH (Homo sapiens, UniProt Q12797).
T2 sequence (Q12797 315-758): T1 sequence (Q12797 315-758)
The assay can be described thus: SPE-MS AspH turnover assay in the absence of 2OG (2OG derivative as cosubstrate).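 Also: percent conversion = hydroxylated cyclic peptide peak area relative to summed substrate plus product areas, taken from +2 charge state ion chromatograms by solid phase extraction MS.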 The note with it: 330 μM 2OG or 2OG derivative, 0.1 μM AspH, 2 μM hFX-CP101-119, 50 μM FAS, t = 15 min.
Protocol: AspH assays were performed as described in the ESI, ^† data are shown as the mean of three independent runs (n = 3; mean ± standard deviation, SD).
AspH assays were performed as described in Section 9 of the Supporting Information using 0.1 μM AspH, 2 μM
a positive control in the SPE-MS AspH turnover assays (Entry 1).
dependent conversion of the AspH substrate hFX-CP101-119 (Supporting Figure S1d). %-Substrate conversion is
AspH assays were performed as
described in Section 9 of the Supporting Information using 0.1 μM AspH, 2 μM hFX-CP101-119, 50 μM FAS, 330
AspH inhibition assays were incubated for 6 rather than 7 minutes before the enzyme reaction was
stopped by the addition of 10%v/v aqueous formic acid.
MS-analyses were performed using a RapidFire RF 365 high-throughput sampling robot (Agilent) attached to an
iFunnel Agilent 6550 accurate mass quadrupole time-of-flight (Q-TOF) mass spectrometer operated in the positive
ionization mode. Assay samples were aspirated under vacuum for 0.4 s and loaded onto a C4 solid phase extraction (SPE) cartridge. After loading, the C4 SPE cartridge was washed with 0.1%v/v aqueous formic acid to remove
non-volatile buffer salts (5 s, 1.5 mL/min). The peptide was eluted from the SPE cartridge with 0.1%v/v aqueous
formic acid in 85/15v/v acetonitrile/water into the mass spectrometer (5 s, 1.25 mL/min) and the SPE cartridge re-
equilibrated with 0.1%v/v aqueous formic acid (1 s, 1.25 mL/min). The mass spectrometer parameters were:
capillary voltage (4000 V), nozzle voltage (1000 V), fragmentor voltage (365 V), gas temperature (280°C), gas
flow (13 L/min), sheath gas temperature (350°C), sheath gas flow (12 L/min). The m/z +2 charge states of the
cyclic peptide (substrate) and the hydroxylated cyclic peptide (product) were used to extract ion chromatogram
data, peak areas were integrated using RapidFire Integrator software (Agilent). Data were exported into Microsoft
Excel and used to calculate the % conversion of the hydroxylation reaction using the equation: % conversion =
100 x (integral product cyclic peptide) / (integral substrate cyclic peptide + integral product cyclic peptide).
Normalized dose-response curves (2,4-PDCA and DMSO controls) were obtained from the raw data by non-linear
regression (GraphPad Prism 5) and used to determine IC50-values. The standard deviation (SD) of three
independent IC50 determinations (n = 3) was calculated using GraphPad Prism 5. Z’-factors were calculated
according to the cited literature using Microsoft Excel (Supporting Figure S3).14

In assay [3] the target is T1, human AspH (His6-AspH315-758). Kind of assay: SPE-MS AspH inhibition assay. The format is biochemical. The note with it: mean ± SD, n = 3. The method, then: 6. Recombinant AspH production and purification
N-Terminally His6-tagged human AspH315-758 (His6-AspH315-758) was produced in Escherichia coli BL21 (DE3) cells using a pET-28a(+) vector and purified by Ni(II)-affinity chromatography (HisTrap HP column, GE Healthcare; 1 mL/min flow rate) and size-exclusion chromatography (HiLoad 26/60 Superdex 75 pg 300 mL column; 1 mL/min) using an ÄKTA pure machine (GE Healthcare) as previously reported.1,4 AspH was >95% pure by SDS-PAGE and MS analysis and had the anticipated mass (calculated for His6-AspH315-758: 54519 Da, found: 54519 Da).1 Purified AspH was stored in 50 mM HEPES buffer (pH 7.5, 150 mM NaCl) at a concentration of 125 μM at -78 °C; fresh aliquots were used for all AspH assays.
7. AspH substrate synthesis
AspH substrates were designed based on the sequence of EGFD1 of human coagulation factor X (hFX amino acids 86-124), which is a reported cellular AspH substrate.2 All substrates were prepared with a C-terminal amide.
The hFX-EGFD186-124-4Ser peptide (hFX amino acids 86-124; Supporting Figure S1c),1 used for crystallography experiments, was synthesized by solid phase peptide synthesis (SPPS) and purified by GL Biochem (Shanghai) Ltd (Shanghai, China). The thioether linked cyclic peptide hFX-CP101-119 (hFX amino acids 101-119; Supporting
Figure S1d), which was used as substrate in AspH SPE-MS assays,4 was synthesized by an intramolecular thioetherification cyclization reaction from the corresponding linear peptide (D-Ala replacing Cys101hFX and Ser replacing Cys112hFX) which was obtained by microwave-assisted solid phase peptide synthesis using the Fmoc-protection strategy as described.4
8. AspH inhibition assays […]
water; ammonium iron(II) sulfate hexahydrate, FAS, (NH 4)2Fe(SO4)2·6H2O: 400 mM in 20 mM HCl diluted to 1 mM in Milli-Q® Ultrapure water) were freshly prepared each day from commercially sourced solids (Sigma […]
(Greiner) in an approximately three-fold and 11-point dilution series (100 μM top concentration) using an ECHO 550 acoustic dispenser (Labcyte). DMSO and 2,4 -PDCA were used as negative and positive controls , respectively .
The final DMSO concentration was kept constant at 0.5%v/v throughout all experiments (using the DMSO backfill option of the acoustic dispenser). Each reaction was performed in technical duplicates in adjacent wells of the assay plates; additionally, assays were performed in three independent technical duplicates on different days using different DMSO inhibitor solutions. […]
dispensed across the inhibitor-containing 384-well assay plates with a multidrop dispenser (ThermoFischer Scientific) at 20°C under an ambient atmosphere. The plates were subsequently centrifuged (1000 rpm, 30 s) and incubated for 15 minutes at 20°C. The Substrate Mixture (25 μL/well), containing 2.0 μM hFX-CP101-119, 200 μM […]
Note: The multidrop dispenser ensured proper mixing of the Enzyme and the Substrate Mixtures which was essential for assay reproducibility. The plates were centrifuged (1000 rpm, 30 s) and af ter incubating for 7 minutes, […]
centrifuged (1000 rpm, 60 s) and analysed by MS.
The mass spectrometer parameters were:
Data were exported into Microsoft
The standard deviation (SD) of three
Z’-factors were calculated
9. Determination of kinetic parameters […]
in 50 mM HEPES buffer (pH 7.5).

For assay [4], the system named is glutamic oxaloacetic aminotransferase. More on the design: method as in doi:10.1002/1615-4169(200108)343:6/7<692::AID-ADSC692>3.0.CO. Particulars: cited from earlier work.

With `CC(C)(CC(=O)C(=O)O)C(=O)O` [compound 34, 4,4-Dimethyl-2OG], the “AspH-catalyzed oxidative decarboxylation of the 2OG derivative (NMR)” value in assay [1] (10 μM His6-AspH315-758, 150 μM hFX-CP101-119, 150 μM 2OG derivative, 50 μM FAS, pH 7.5, 25 °C) is recorded as “undergoes slow AspH-catalyzed oxidative decarboxylation”. Also, the “hydroxylation (conversion) of hFX-CP101-119 in the final reaction mixture by SPE-MS” value in assay [1] (t = 15 h, 10 μM AspH, 150 μM cosubstrate) is listed as ~ 95%. Moreover, in assay [2], the “AspH-catalyzed substrate conversion (hydroxylation of hFX-CP101-119)” value is under 1%. In addition, the 50% inhibitory concentration (IC50) – broadly, the midpoint of a concentration-inhibition curve – in assay [3] (50 nM His6-AspH315-758, 1.0 μM hFX-CP101-119, read-out: IC50 (ESI Fig. S4)) was 0.31 ± 0.1 µM; in assay [3] (50 nM His6-AspH315–758, 1.0 μM hFX-CP101–119, 3 μM 2OG, read-out: IC50 (inhibition of AspH)) it was ~0.3 µM and 0.3 µM; in assay [3] (IC50 at 200 μM 2OG (ESI Table S1), assay concentration of 200 μM 2OG), 6.4 ± 0.4 µM; in assay [3] (IC50 at 400 μM 2OG (ESI Table S1), assay concentration of 400 μM 2OG), 10 ± 3.1 µM; in assay [3] (IC50 at 600 μM 2OG (ESI Table S1), assay concentration of 600 μM (0.6 mM) 2OG) it was 18.7 µM and ~18.7 µM. Further, the “substitution for 2OG in transamination reactions” value in assay [4] was “does not efficiently substitute for 2OG”.
